According to patent US20240173419A1, “CDK2 DEGRADERS AND USES THEREOF” (Kymera Therapeutics, Inc., priority 2022, published 2024):

Target: T1, CDK2 (Homo sapiens, UniProt P24941)
T1 construct: endogenous in cells; host or cells: MKN1 cells
Assay: CDK2 degradation in MKN1 cells (AlphaLISA)
Assay type: cell-based
Conditions: for CDK2 degradation 14 h: Average Dmax % / DC50: 14 h incubation; for DC50: read-out: CDK2 degradation 14 h: Mean external-Abs DC50
Summary of the method: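 DC50 from four-parameter logistic fit of AlphaLISA CDK2 signal, corrected for no-cell wells. Lysates came from MKN1 cells, 2e4 per well, exposed 14 h at 37° C to compound at 0.001 nM-10 μM (1:5 series, 11 doses) in 0.1% DMSO.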

Compound | CDK2 degradation 14 h: Average Dmax % | DC50 | Dmax (MKN-1, 14 h incubation)
Cc1cc(S(=O)(=O)N2CCC(CN(CC(F)F)C3CCN(c4cccc5c4n(C)c(=O)n5C4CCC(=O)NC4=O)CC3)CC2)ccc1Nc1ncc2cc(Cl)c(=O)n(C3CCCC34CC4)c2n1 (stereo not drawn) [I-356] | D (D (<25%)) | > 1000 nM | 
CCOc1cc(NC2CCC(=O)NC2=O)ccc1N1CCC(CN2CCC3(CC2)CC(S(=O)(=O)c2ccc(Nc4ncc5cc(Cl)c(=O)n(C6CCCC6)c5n4)c(C)c2)C3)CC1 (stereo not drawn) [I-309] | A (A (>75% o)) | 100 to 500 nM | 
Cc1cc(S(=O)(=O)N2CCC(CN(C)C3CCN(c4cccc5c4n(C)c(=O)n5C4CCC(=O)NC4=O)CC3)CC2)ccc1Nc1ncc2cc(Cl)c(=O)n(C3CCCC34CC4)c2n1 (stereo not drawn) [I-436] | A (A (>75% o)) | < 100 nM | 
Cc1cc(S(=O)(=O)C2CC3(CCN(CC4CCN(c5ccc6c(c5F)n(C)c(=O)n6C5CCC(=O)NC5=O)CC4)CC3)C2)ccc1Nc1ncc2c(n1)N(C1CCCC(O)C1)C(=O)C21CC1 (stereo not drawn) [I-609] | A (A (>75% o)) | < 100 nM | 
Cc1cc(S(=O)(=O)C2CC3(CCN(CC4CCN(c5cccc6c5n(C)c(=O)n6C5CCC(=O)NC5=O)CC4)CC3)C2)ccc1Nc1ncc2cc(Cl)c(=O)n(C3CCCC3)c2n1 (stereo not drawn) [I-58] | A (A (>75% o)) | < 100 nM | 
CCc1cnc(Nc2ccc(S(=O)(=O)C3CC4(CCN(CC5CCN(c6cccc7c6n(C)c(=O)n7C6CCC(=O)NC6=O)CC5)CC4)C3)cc2C)nc1C1CCC(C)(O)CC1 (stereo not drawn) [I-514] | D (D (<25%)) | > 1000 nM | 
Cc1cc(S(=O)(=O)C2CC3(CCN(CC4CCN(c5cccc6c5n(C)c(=O)n6C5CCC(=O)NC5=O)CC4)CC3)C2)ccc1Nc1ncc2c(n1)N(C1CCCC1)C(=O)C21CC1 (stereo not drawn) [I-42] | A (A (>75% o)) | < 100 nM | 
Cc1cc(S(=O)(=O)NCCOC2CCC3(CC2)CCN(CC#Cc2ccc4c(c2)n(C)c(=O)n4C2CCC(=O)NC2=O)CC3)ccc1Nc1ncc2ccc(=O)n(C3CCCC3)c2n1 (stereo not drawn) [I-471] | A (A (>75% o)) | < 100 nM | 

Continued, values first:

CDK2 degradation 14 h: Average Dmax % | DC50 | Dmax (MKN-1, 14 h incubation) | Compound
A (A (>75% o)) | < 100 nM |  | Cc1cc(S(=O)(=O)NC(C)COC2CCC(CN3CC(c4ccc5c(c4F)n(C)c(=O)n5C4CCC(=O)NC4=O)C3)CC2)ccc1Nc1ncc(C(F)(F)F)c(N2CCCC(C)(O)C2)n1 (stereo not drawn) [I-848]
A (A (>75% o)) | < 100 nM |  | Cc1cc(S(=O)(=O)NC2CC(N3CCN(CC4CCN(c5ccc(C6CCC(=O)NC6=O)c(Cl)c5)CC4)CC3)C2)ccc1Nc1ncc(C(F)(F)F)c(N2CCCC(C)(O)C2)n1 (stereo not drawn) [I-713]
A (A (>75% o)) | < 100 nM |  | Cc1cc(S(=O)(=O)NC2(C)CCC(CN3CCN(c4ccc(C5CCC(=O)NC5=O)cc4F)CC3)CC2)ccc1Nc1ncc(C(F)(F)F)c(N2CCC[C@](C)(O)C2)n1 (stereo partly drawn) [I-814]
B (B (>50% -75%)) | > 1000 nM |  | Cc1cc(S(=O)(=O)NC2CC(N3CCN(CC4CCN(c5ccc(Cl)c(NC6CCC(=O)NC6=O)c5)CC4)CC3)C2)ccc1Nc1ncc(C(F)(F)F)c(N2CCCC(C)(O)C2)n1 (stereo not drawn) [I-716]
A (A (>75% o)) | < 100 nM |  | Cc1nc(S(=O)(=O)NC2CCC(CN3CCN(c4ccc(C5CCC(=O)NC5=O)c(Cl)c4)CC3)CC2)ccc1Nc1ncc(C(F)(F)F)c(N2CCCC(C)(O)C2)n1 (stereo not drawn) [I-1048]
 | < 100 nM | > 75% | Cc1cc(S(=O)(=O)NC2CCC(CN3CCN(c4ccc(C5CCC(=O)NC5=O)c(Cl)c4)CC3)CC2)ccc1Nc1ncc(C(F)(F)F)c(N2CCC[C@](C)(O)C2)n1 (stereo partly drawn) [I-745, N-[4-[[4-[3-chloro-4-(2,6-dioxo-3-piperidyl)phenyl]piperazin-1-yl]methyl]cyclohexyl]-4-[[4-[(3S)-3-hydroxy-3-methyl-1-piperidyl]-5-(trifluoromethyl)pyrimidin-2-yl]amino]-3-methyl-benzenesulfonamide]
A (A (>75% o)) | < 100 nM |  | CC1CN(CC2CCN(c3ccc(C4CCC(=O)NC4=O)c(F)c3)CC2)CCC1NS(=O)(=O)c1ccc(Nc2ncc(C(F)(F)F)c(N3CCCC(C)(O)C3)n2)c(F)c1 (stereo not drawn) [I-1046]
